# Reference: article PMC3931418 (Nature, 2014)
# Biological target: BRIL-δOR(ΔN/ΔC) (Sf9) (Homo sapiens, UniProt P41143, P37S)
# Type: binding
# Sequence of BRIL-δOR(ΔN/ΔC) (Sf9) (P41143 36-338 P37S): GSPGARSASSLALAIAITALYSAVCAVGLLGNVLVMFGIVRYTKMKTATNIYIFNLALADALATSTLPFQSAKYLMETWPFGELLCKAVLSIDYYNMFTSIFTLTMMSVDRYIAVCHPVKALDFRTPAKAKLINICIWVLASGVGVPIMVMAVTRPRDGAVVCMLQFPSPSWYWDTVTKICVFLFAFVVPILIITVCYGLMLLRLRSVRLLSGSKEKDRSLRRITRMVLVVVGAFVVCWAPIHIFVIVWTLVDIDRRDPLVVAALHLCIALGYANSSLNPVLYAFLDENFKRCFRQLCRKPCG
smiles,measurement,setting,value
[Na+] [sodium],Hill Coefficient,,0.79 ± 0.02
same,Na+ pKB ± SEM,,1.79 ± 0.11
same,pα ± SEM,,0.86 ± 0.05
same,α,,0.138
same,Kb,read-out: Na+ KB,15.9 mM
